Data from article PMC7900183 (2021).

How the values were obtained:
[1] = test system: PW17Ext (DNA, G4) GAGGAGGAGGAGGAGAGGGTAGGGCGGGTTGGG; test: fluorescence melting; conditions: 150 mM Na+, 10 mM K+; 50 mM Tris, pH 7.4; complex more stable than without K+
[2] = test system: Apt5 (DNA, aptamer) GCGTAGATCGAGGCTATTAGGAGGTGGGATGCGTCAGGGC; test: fluorescence enhancement; conditions: 150 mM Na+; 61x enhancement; 1 µM DNA, 5 µM ThT; 50 mM Tris, pH 7.4
[3] = test system: Apt1 (DNA, aptamer) TCGCGTGTGCAGAGGCGAGTAGGTGGGAGATCTGTCTGGG; test: fluorescence enhancement; conditions: 150 mM Na+; 9x enhancement; 1 µM DNA, 5 µM ThT; 50 mM Tris, pH 7.4
[4] = test system: Apt2 (DNA, aptamer) GACCGGAGGGGCATCAGCTGTCCGTGAGGTTGCCGCGAG; test: fluorescence enhancement; conditions: 150 mM Na+; 13x enhancement; 1 µM DNA, 5 µM ThT; 50 mM Tris, pH 7.4
[5] = test system: Apt3 (DNA, aptamer) GCACGTCCAGGACGGGGGAGCGGTGCTAGTGTCTGGCAGG; test: fluorescence enhancement; conditions: 150 mM Na+; 20x enhancement; 1 µM DNA, 5 µM ThT; 50 mM Tris, pH 7.4
[6] = test system: Apt4 (DNA, aptamer) GACCGGAGGGGCATCAGCTGTCCGTGAGGTTGCCGCGAGT; test: fluorescence enhancement; conditions: 150 mM Na+; 14x enhancement; 1 µM DNA, 5 µM ThT; 50 mM Tris, pH 7.4
[7] = test system: Apt5.1-24 (DNA, aptamer) GCGTAGATCGAGGCTATTAGGAGG; test: fluorescence enhancement; conditions: 150 mM Na+; less fluorescent than Apt5; 1 µM DNA, 5 µM ThT; 50 mM Tris, pH 7.4
[8] = test system: Apt5.5-28 (DNA, aptamer) AGATCGAGGCTATTAGGAGGTGGG; test: fluorescence enhancement; conditions: 150 mM Na+; less fluorescent than Apt5; 1 µM DNA, 5 µM ThT; 50 mM Tris, pH 7.4
[9] = test system: Apt5.13-36 (DNA, aptamer) GCTATTAGGAGGTGGGATGCGTCA; test: fluorescence enhancement; conditions: 150 mM Na+; less fluorescent than Apt5; 1 µM DNA, 5 µM ThT; 50 mM Tris, pH 7.4
[10] = test system: Apt5.17-40 (DNA, aptamer) TTAGGAGGTGGGATGCGTCAGGGC; test: fluorescence enhancement; conditions: 150 mM Na+; less fluorescent than Apt5; 1 µM DNA, 5 µM ThT; 50 mM Tris, pH 7.4
[11] = test system: ThT.2-2 (DNA, aptamer) GACGACGACACAGGATTAATCTTATTAGTCGTC; test: fluorescence enhancement; conditions: less fluorescent than Apt5.9-32; several concentrations
[12] = test system: Primer-215 (DNA, single strand) ATGACCTATGAATTGACAGAC; test: fluorescence enhancement; conditions: no fluorescence; 5 µM ThT, 1 µM oligonucleotide; text says miR-215 (Primer-215)
[13] = test system: Apt5.9-32 (DNA, aptamer) CGAGGCTATTAGGAGGTGGGATGC; test: fluorescence titration, 510 nm; conditions: 150 mM Na+; 50 mM Tris, pH 7.4; 1 µM ThT, aptamer 2.5-50 µM; mean of three

Question: Which results are given for `Cc1ccc2c(c1)sc(-c1ccc(N(C)C)cc1)[n+]2C`?
Answer: binding [1]: yes; binding [2]: yes; binding [3]: yes; binding [4]: yes; binding [5]: yes; binding [6]: yes; binding [7]: weak; binding [8]: weak; binding [9]: weak; binding [10]: weak; binding [11]: yes; binding [12]: no; dissociation constant [13]: 6 ± 2 µM
